Data taken from patent publication US20030049712A1, “Method of detecting protease activity in a cell” (priority 2001, published 2003).

System: caspase-3
Assay: Caspase3 assay using an NES-protease cleavage-NLS fusion protein (EYFP translocation)
Assay type: cell-based
Conditions: 3T3 cells transiently transfected with pCaspase3-sensor Vector; staurosporin 700 nM; detected 4 hours post induction; untreated cells: EYFP in the cytoplasm
Excerpt: A construct was generated that includes a nucleotide sequence encoding a fusion protein including, in order from amino to carboxyl terminus, an NES of MAP-kinase-kinase (NLVDLQKKLEELELDEQQ; SEQ ID NO: 23); a recognition site for caspase-3 (DEVD; SEQ ID NO: 22) bordered by a stretch of amino acids found in the cleavage site of the endogenous caspase-3 substrate poly (ADP-ribose) polymerase (PARP; Nicholson et al. (1995) Nature 376:37-43; and Tewari et al. (1995) Cell 81:801-809), such that the cleavage recognition site has the sequence KRKGDEVDGVDF (SEQ ID NO: 24); an enhanced yellow fluorescent protein (EYFP); and a three tandem repeat of the NLS from simian virus large T antigen. In this construct, the NES is dominant over the NLS.
The construct was transfected into mammalian cells. Specifically, 3T3 cells were grown on coverslips, transiently transfected with the pCaspase3-sensor Vector which is encodes the above described fusion protein and is further illustrated in Clontechniques (April, 2002), and grown for 24 hours. Apoptosis was induced using staurosporin (700 nM) and caspase-3 activity was detected 4 hours post induction. Cells were fixed with 3% paraformaldehyde and photomicrographs were taken using a Zeiss microscope.

For `CN[C@@H]1C[C@H]2O[C@@](C)([C@@H]1OC)n1c3ccccc3c3c4c(c5c6ccccc6n2c5c31)C(=O)NC4` [staurosporin], the “caspase-3 activity read out as subcellular location of EYFP” value was “the EYFP was detected in the nucleus”.
